Data from patent publication US20120269781A1, “METHOD FOR PROLIFERATING HAIR FOLLICLE STEM CELLS” (RNL BIO CO., LTD., priority 2009, published 2012).

Columns and labels:
follicular stem cells [1] = experiment: Culture of follicular stem cells in 9 kinds of media with or without ROCK inhibitor; assay type: cell-based, human; conditions: 10 μM
Procedure: Then, the follicular stem cells were added to each well of a 12-well plate, and 1 ml of each of control groups and test groups for 9 kinds of media containing ITS+ (insulin, transferrine, selenium) premix, EGF, bFGF and an antibiotic/antimycotic mixture was added to each well of the 12-well plate. 10 μl (10 μM) of the ROCK inhibitor Y-27632 was added to each of the test groups, and the cells were cultured.
At days 2, 3 and 4 after the start of culture, the state of proliferation of the follicular stem cells in each of the media was observed, and the results of the observation are shown in FIGS. 1 to 5.

follicular stem cells [2] = experiment: Proliferation ability of follicular stem cells at various concentrations of ROCK inhibitor; assay type: cell-based, human; conditions: M199/F-12 medium, days 2-6
Procedure: In order to examine the proliferation ability of follicular stem cells at various concentrations of the ROCK inhibitor, the ROCK inhibitor was added at various concentrations to a M199/F-12 medium containing ITS+ premix, EGF, bFGF and antibiotic/antimycotic mixture, and the follicular stem cells obtained in Example 1 were cultured in the medium. Specifically, 10 μM of the ROCK inhibitor was added to M199/F-12 used in Example 1, and the P1 follicular stem cells were cultured in the M199/F-12 medium and collected by TrypLE-Express treatment. Then, the cells were added to each well of a 6-well plate at a density of 7.70×10^5 cells, and 2 ml of M199/F-12 was added to each well of the 6-well plate. The cell suspension was plated in each well of a 6-well plate, and then the ROCK inhibitor Y-27632 was added at concentrations of 10 nM, 100 nM, 1 μM, 10 μM and 100 μM to the 5 wells (excluding the well for a control group) of the 6-well plate, respectively, followed by culture of the follicular stem cells. The medium was replaced at 2-day intervals during culture of the cells, and the cells were photographed 2, 3, 4, 5 and 6 days after the start of cell culture.

CC(N)C1CCC(C(=O)Nc2ccncc2)CC1 (stereo not drawn) [ROCK inhibitor, Y-27632]
effect on the proliferation of the follicular stem cells compared to the control groups (follicular stem cells [1]; in M199/F12, MEM-alpha, DMEM L/G, DMEM H/G, MCDB 131 and IMEM medium): good effects
effect on the proliferation of the follicular stem cells compared to the control groups (follicular stem cells [1]; in M199/F12 medium and MEM-alpha medium): most excellent effects
effect on increase in the number and on the viability of follicular stem cells (follicular stem cells [1]; specific media containing the ROCK inhibitor): excellent effects
proliferation of the cells versus cells not treated (follicular stem cells [2]; 100 nM or less): did not significantly differ
morphology / differentiation of the cells (follicular stem cells [2]; 1 μM or 100 μM): morphological change or differentiation of the cells appeared
proliferation of the cells (follicular stem cells [2]; 1 μM or 100 μM): enhanced
